Laboratory results published in article PMC10303200 (ACS Central Science, 2023).
Where “and” joins values, the source holds several entries; their conditions need not be identical. Equal values may be shown once. Read-outs that look alike come from different tables or passages of the source.

Key:
[1] = biological target: T1, GAL-3C (Homo sapiens, UniProt P17931); experiment: Direct native ESI-MS at known concentrations with single glycans, 200 mM ammonium acetate, pH 6.9, 25 °C.; format: binding; design: gene LGALS3; C-terminal carbohydrate recognition domain fragment, residues 107-250; conditions: SD; read-out: Kd (nMS), Table S2
T1 sequence (P17931 107-250): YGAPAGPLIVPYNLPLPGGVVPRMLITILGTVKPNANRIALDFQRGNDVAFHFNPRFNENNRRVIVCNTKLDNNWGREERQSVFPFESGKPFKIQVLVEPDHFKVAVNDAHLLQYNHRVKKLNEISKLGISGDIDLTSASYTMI

[2] = biological target: T1, GAL-3C; experiment: COIN-nMS (slow mixing in nanoESI emitter, fit of eq 12) at one glycan concentration, 200 mM ammonium acetate, pH 6.9, 25 °C.; format: binding; design: gene LGALS3; C-terminal carbohydrate recognition domain fragment, residues 107-250; conditions: SD; read-out: Kd (COIN-nMS, individual experiments), Table S2
[3] = biological target: T1, GAL-3C; experiment: COIN-nMS, global fit over several glycan concentrations, 200 mM ammonium acetate, pH 6.9, 25 °C.; format: binding; design: gene LGALS3; C-terminal carbohydrate recognition domain fragment, residues 107-250; conditions: SD; read-out: Kd (COIN-nMS, global fit), Table S2
[4] = biological target: T1, GAL-3C; experiment: Literature reference values quoted in the results table, conditions not restated.; format: binding; design: gene LGALS3; C-terminal carbohydrate recognition domain fragment, residues 107-250; conditions: SD; read-out: Kd (Literature), Table S2; cited from earlier work
[5] = biological target: RCA-I (Ricinus communis agglutinin) (Ricinus communis, UniProt P06750); format: binding
[6] = biological target: Siglec-7; conditions: ITC; cited from earlier work

SMILES: CC(=O)N[C@H]1C(O)O[C@H](CO)[C@@H](O[C@@H]2O[C@H](CO)[C@H](O)[C@H](O[C@H]3O[C@H](CO)[C@H](O)[C@H](O)[C@H]3O)[C@H]2O[C@@H]2O[C@@H](C)[C@@H](O)[C@@H](O)[C@@H]2O)[C@@H]1O (stereo partly drawn) [G1, α-D-Gal-(1→3)-[α-L-Fuc(1→2)]-β-D-Gal(1→4)-D-GlcNAc]
- Kd [1]: 4.2 µM
- Kd [2]: 3.2 µM and 3.7 µM and 5.8 µM
- Kd [3]: 3.8 µM
- Kd [4]: 4.5 µM

SMILES: CC(=O)N[C@H]1[C@H](O[C@H]2[C@H](O)[C@@H](NC(C)=O)C(O)O[C@@H]2CO[C@@H]2O[C@@H](C)[C@@H](O)[C@@H](O)[C@@H]2O)O[C@H](CO)[C@@H](O[C@@H]2O[C@H](CO[C@H]3O[C@H](CO)[C@@H](O)[C@H](O)[C@@H]3O[C@@H]3O[C@H](CO)[C@@H](O[C@@H]4O[C@H](CO)[C@H](O)[C@H](O)[C@H]4O)[C@H](O)[C@H]3NC(C)=O)[C@@H](O)[C@H](O[C@H]3O[C@H](CO)[C@@H](O)[C@H](O)[C@@H]3O[C@@H]3O[C@H](CO)[C@@H](O[C@@H]4O[C@H](CO)[C@H](O)[C@H](O)[C@H]4O)[C@H](O)[C@H]3NC(C)=O)[C@@H]2O)[C@@H]1O (stereo partly shown) [HexNAc4Hex5Fuc1]
- Kd ([5]; pH 6.9; read-out: Kd (Native)): 1.4 ± 0.4 µM

SMILES: CC(=O)N[C@H]1[C@H]([C@H](O)[C@H](O)CO)O[C@@](O[C@H](CO)[C@@H](O)[C@@H]2O[C@@](O[C@H]3[C@@H](O)[C@@H](CO)O[C@@H](O[C@H]4[C@H](O)[C@@H](O)C(O)O[C@@H]4CO)[C@@H]3O)(C(=O)O)C[C@H](O)[C@H]2NC(C)=O)(C(=O)O)C[C@@H]1O (stereo partly drawn) [GD3, α-D-Neu5Ac-(2→8)-α-D-Neu5Ac-(2→3)-β-D-Gal-(1→4)-D-Glc]
- Kd [6]: 98 µM

SMILES: CC(=O)N[C@H]1[C@H](O[C@H]2[C@H](O)[C@@H](NC(C)=O)C(O)O[C@@H]2CO)O[C@H](CO)[C@@H](O[C@@H]2O[C@H](CO[C@H]3O[C@H](CO)[C@@H](O)[C@H](O)[C@@H]3O[C@@H]3O[C@H](CO)[C@@H](O[C@@H]4O[C@H](CO)[C@H](O)[C@H](O)[C@H]4O)[C@H](O)[C@H]3NC(C)=O)[C@@H](O)[C@H](O[C@H]3O[C@H](CO)[C@@H](O)[C@H](O)[C@@H]3O[C@@H]3O[C@H](CO)[C@@H](O[C@@H]4O[C@H](CO)[C@H](O)[C@H](O)[C@H]4O)[C@H](O)[C@H]3NC(C)=O)[C@@H]2O)[C@@H]1O (stereo partly shown) [HexNAc4Hex5]
- Kd ([5]; read-out: Kd (Native); pH 6.9): 1.22 ± 0.03 µM
